Experimental data reported in patent publication US10898471B2, “Methods of inhibiting leukotriene A4 hydrolase” (Celltaxis, LLC, priority 2013, dated 2021).

Tests used:
LTA4-h = target: T1, LTA4-h (Homo sapiens, UniProt P09960); assay: human whole blood ex vivo assay: A23187-stimulated LTB4 production measured by ELISA; assay type: cell-based; details: IC50 in human whole blood
T1 construct: in human whole blood has been determined using an ex vivo assay; from tissue; host or cells: human whole blood (male and female donors)
T1 sequence (P09960 1-611): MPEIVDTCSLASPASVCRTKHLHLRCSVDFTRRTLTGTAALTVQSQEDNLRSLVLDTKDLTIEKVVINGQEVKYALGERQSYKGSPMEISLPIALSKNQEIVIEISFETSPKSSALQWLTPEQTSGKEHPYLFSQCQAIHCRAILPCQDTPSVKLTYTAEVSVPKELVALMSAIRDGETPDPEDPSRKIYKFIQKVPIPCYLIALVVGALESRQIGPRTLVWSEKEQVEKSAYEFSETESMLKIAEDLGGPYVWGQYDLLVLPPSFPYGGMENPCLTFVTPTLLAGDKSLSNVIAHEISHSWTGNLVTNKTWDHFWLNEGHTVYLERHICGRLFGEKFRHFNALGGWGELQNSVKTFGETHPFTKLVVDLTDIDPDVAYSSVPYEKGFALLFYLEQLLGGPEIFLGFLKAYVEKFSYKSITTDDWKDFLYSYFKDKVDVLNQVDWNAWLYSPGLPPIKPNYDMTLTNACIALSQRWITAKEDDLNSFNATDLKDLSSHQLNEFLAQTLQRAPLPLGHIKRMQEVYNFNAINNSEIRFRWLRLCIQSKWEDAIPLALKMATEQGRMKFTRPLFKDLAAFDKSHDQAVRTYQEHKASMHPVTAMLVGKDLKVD
Text: The IC50 of 4-{[(1S,4S)-5-({4-[4-oxazol-2-yl-phenoxy]phenyl}methyl)-2,5-diazabicyclo[2.2.1]heptan-2-yl]methyl}benzoic acid in human whole blood has been determined using an ex vivo assay. The human whole blood assay has been described in Penning et al (2000), Structure and Activity Relationship Studies on 1-[2-(4-Phenylphenoxy)ethyl]pyrrolidone (SC-22716), a Potent Inhibitor of Leukotriene A4 (LTA4) hydrolase, J. Med. Chem. 43: 721-735, the contents of which are expressly incorporated by reference herein. In this assay, LTB4 production is stimulated by addition of calcium ionophone (A23187) in the absence or presence of varied concentrations of 4-{[(1S,4S)-5-({4-[4-oxazol-2-yl-phenoxy]phenyl}methyl)-2,5-diazabicyclo[2.2.1]heptan-2-yl]methyl}benzoic acid. The ability of 4-{[(1S,4S)-5-({4-[4-oxazol-2-yl-phenoxy]phenyl}methyl)-2,5-diazabicyclo[2.2.1]heptan-2-yl]methyl}benzoic acid to reduce is LTB4 production is determined by ELISA. This ELISA assay was performed using the Leukotriene B4 EIA Kit available from Cayman Chemical (Item No. 520111) and the assay was performed according to the manufacturer's instructions.
(§1) Thus, oral human doses as low as 10 mg can provide therapeutic benefit in the current formulation and, with improved formulation, doses as low as 5 mg can achieve therapeutic levels of the compound in blood.

[1] = human pharmacokinetics: plasma concentration over time after oral dose; assay type: in vivo
Experimental: The two sets of dashed, horizontal lines indicate the plasma concentration that is three-times (3×) the IC50 and the plasma concentration that is one-time (1×) the IC50 of 4-{[(1S,4S)-5-({4-[4-oxazol-2-yl-phenoxy]phenyl}methyl)-2,5-diazabicyclo[2.2.1]heptan-2-yl]methyl}benzoic acid in human blood.
as §1

O=C(O)c1ccc(CN2C[C@@H]3C[C@H]2CN3Cc2ccc(Oc3ccc(-c4ncco4)cc3)cc2)cc1 [4-{[(1S,4S)-5-({4-[4-oxazol-2-yl-phenoxy]phenyl}methyl)-2,5-diazabicyclo[2.2.1]heptan-2-yl]methyl}benzoic acid]
IC50 (LTA4-h; female blood): 0.068 µM
IC50 (LTA4-h; human whole blood, LTB4 production stimulated by calcium ionophore A23187): ~0.0623 µM
IC50 (LTA4-h; male blood): 0.06 µM
peak plasma concentration relative to the IC50 ([1]; 5 mg oral dose): nearly achieves the IC50
time for which the blood plasma level exceeds the IC50 ([1]; 15 mg oral dose): over 12 hours
time for which the blood plasma level exceeds 3-times the IC50 ([1]; 50 mg oral dose): over 24 hours
